Results taken from US6369225B1, “Compounds having activity as inhibitors of cytochrome P450RAI” (Allergan Sales, Inc., priority 2000, dated 2002).
pIC50, pKd: −log10 of the molar value.

Experiments:
P450RAI-1 = target: T1, P450RAI-1 (Homo sapiens, UniProt O43174); assay: P450RAI-1 cell-based inhibitor assay; details: P450RAI-1 stably transfected HeLa cells, [3H]-RA metabolism, 3 hours at 37° C.; read-out: P450RAI INHIBITION DATA INTACT HELA IC50
T1 construct: expressed in transfected cells; host or cells: HeLa cells, stably transfected, hygromycin selection
T1 sequence (O43174 1-497): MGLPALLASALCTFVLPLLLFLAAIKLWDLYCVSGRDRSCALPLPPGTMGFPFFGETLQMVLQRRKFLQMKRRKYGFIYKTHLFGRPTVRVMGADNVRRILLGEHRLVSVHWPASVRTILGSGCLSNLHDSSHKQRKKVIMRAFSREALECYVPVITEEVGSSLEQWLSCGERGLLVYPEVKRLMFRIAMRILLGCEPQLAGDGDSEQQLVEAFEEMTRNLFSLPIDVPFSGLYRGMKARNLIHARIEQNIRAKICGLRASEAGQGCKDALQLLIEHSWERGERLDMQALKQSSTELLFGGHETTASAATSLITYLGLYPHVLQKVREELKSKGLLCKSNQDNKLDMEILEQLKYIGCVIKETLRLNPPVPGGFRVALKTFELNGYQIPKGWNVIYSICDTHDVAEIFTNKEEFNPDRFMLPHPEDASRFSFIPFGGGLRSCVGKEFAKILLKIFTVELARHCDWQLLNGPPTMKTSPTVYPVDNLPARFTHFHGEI
Experimental: P450RAI-1 stably transfected HeLa cells are maintained in […] tissue culture dishes in Modified Eagle's Medium (MEM) containing 10% Fetal Bovine Serum (FBS) and 100 μg/ml hygromycin. Exponentially growing cells are harvested by incubating in trypsin. Cells are then washed with 1× Phosphate Buffered Saline (PBS) and plated in a 48-well plate at 5×10^5 cells in 0.2 ml MEM medium containing 10% FBS and 0.05 μCi[^3H]-RA in the presence or absence of increasing concentrations of the test compounds. The compounds are diluted in 100% DMSO and then added in triplicate wells at either 10, 1 or 0.1 μM final concentration. As a positive control for RA metabolism inhibition, cells are also incubated with ketoconazole at 100, 10 and 1 μM. Cell are incubated for 3 hours at 37° C. […] The water soluble radioactivity is quantified using a β-scintillation counter. IC50 values represent the concentration of inhibitor required to inhibit all-trans-RA metabolism by 50 percent and are derived manually from log-transformed data.

RARα = target: T2, RARα (Homo sapiens, UniProt P10276); assay: ligand binding assay, RARα; details: Kd line of EC50/(EFFICACY)/Kd, read-out: RAR Kd α
T2 sequence (P10276 1-462): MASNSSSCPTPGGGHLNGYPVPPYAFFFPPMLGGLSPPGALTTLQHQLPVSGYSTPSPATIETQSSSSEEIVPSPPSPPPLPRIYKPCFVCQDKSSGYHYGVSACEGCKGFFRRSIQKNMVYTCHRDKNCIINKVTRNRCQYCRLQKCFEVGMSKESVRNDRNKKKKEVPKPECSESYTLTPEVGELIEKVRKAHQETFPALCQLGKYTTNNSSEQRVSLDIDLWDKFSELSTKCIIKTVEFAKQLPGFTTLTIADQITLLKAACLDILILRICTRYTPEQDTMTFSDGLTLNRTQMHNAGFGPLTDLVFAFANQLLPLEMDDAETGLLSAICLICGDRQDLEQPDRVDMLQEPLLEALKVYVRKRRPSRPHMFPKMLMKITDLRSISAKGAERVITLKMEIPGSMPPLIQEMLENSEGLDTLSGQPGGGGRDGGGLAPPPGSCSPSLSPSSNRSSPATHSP
Source text: (§1) Assays described below measure the ability of a compound to bind to, and/or activate various retinoid receptor subtypes. When in these assays a compound binds to a given receptor subtype and activates the transcription of a reporter gene through that subtype, then the compound is considered an agonist of that receptor subtype. […] In the below described assays the ability of the compounds to bind to RARα, RARβ, RARγ, RXRα, RXRβ and RXRγ receptors, and the ability or inability of the compounds to activate transcription of a reporter gene through these receptor subtypes can be tested.
(§2) A holoreceptor transactivation assay and a ligand binding assay which measure the antagonist/agonist like activity of the compounds of the invention, or their ability to bind to the several retinoid receptor subtypes, respectively, are described in published PCT Application No. WO WO93/11755 (particularly on pages 30-33 and 37-41) published on Jun. 24, 1993, the specification of which is also incorporated herein by reference. A detailed experimental procedure for holoreceptor transactivations has been described by Heyman et al. Cell 68, 397-406, (1992); Allegretto et al. J. Biol. Chem. 268, 26625-26633, and Mangelsdorf et al. The Retinoids: Biology, Chemistry and Medicine, pp 319-349, Raven Press Ltd., New York, which are expressly incorporated herein by reference. The results obtained in this assay are expressed in EC50 numbers, as they are also in the chimeric receptor transactivation assay. The results of ligand binding assay are expressed in Kd numbers. (See Cheng et al. Biochemical Pharmacology Vol. 22 pp 3099-3108, expressly incorporated herein by reference.)
(§3) The results if the ligand binding assay for several preferred compounds of the invention are included in Table 1.

RARβ = target: T3, RARβ (Homo sapiens, UniProt P10826); assay: ligand binding assay, RARβ; details: Kd line of EC50/(EFFICACY)/Kd, read-out: RAR Kd β
T3 sequence (P10826 1-455): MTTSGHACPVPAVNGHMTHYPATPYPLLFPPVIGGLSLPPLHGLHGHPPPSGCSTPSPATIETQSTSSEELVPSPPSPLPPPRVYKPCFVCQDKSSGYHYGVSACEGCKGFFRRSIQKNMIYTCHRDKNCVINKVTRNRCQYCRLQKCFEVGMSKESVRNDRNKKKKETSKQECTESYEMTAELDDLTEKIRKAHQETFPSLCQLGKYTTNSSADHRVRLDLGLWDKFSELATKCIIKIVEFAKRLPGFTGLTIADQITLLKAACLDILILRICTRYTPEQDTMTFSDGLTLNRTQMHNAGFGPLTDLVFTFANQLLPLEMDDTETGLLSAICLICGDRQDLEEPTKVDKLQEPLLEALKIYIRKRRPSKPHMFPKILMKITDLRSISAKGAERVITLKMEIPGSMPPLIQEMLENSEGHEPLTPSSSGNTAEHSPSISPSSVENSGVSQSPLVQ
Source text: as §1
as §2, with “A detailed experimental procedure for holoreceptor transactivations has been described by Heyman et al. Cell 68, 397-406, (1992); Allegretto et al. J. Biol. Chem. 268, 26625-26633, and Mangelsdorf et al. The Retinoids: Biology, Chemistry and Medicine, pp 319-349, Raven Press Ltd., New York, which are expressly incorporated herein by reference.” left out

RARγ = target: T4, RARγ (Homo sapiens, UniProt P13631); assay: ligand binding assay, RARγ; details: Kd line of EC50/(EFFICACY)/Kd, read-out: RAR Kd γ
T4 sequence (P13631 1-454): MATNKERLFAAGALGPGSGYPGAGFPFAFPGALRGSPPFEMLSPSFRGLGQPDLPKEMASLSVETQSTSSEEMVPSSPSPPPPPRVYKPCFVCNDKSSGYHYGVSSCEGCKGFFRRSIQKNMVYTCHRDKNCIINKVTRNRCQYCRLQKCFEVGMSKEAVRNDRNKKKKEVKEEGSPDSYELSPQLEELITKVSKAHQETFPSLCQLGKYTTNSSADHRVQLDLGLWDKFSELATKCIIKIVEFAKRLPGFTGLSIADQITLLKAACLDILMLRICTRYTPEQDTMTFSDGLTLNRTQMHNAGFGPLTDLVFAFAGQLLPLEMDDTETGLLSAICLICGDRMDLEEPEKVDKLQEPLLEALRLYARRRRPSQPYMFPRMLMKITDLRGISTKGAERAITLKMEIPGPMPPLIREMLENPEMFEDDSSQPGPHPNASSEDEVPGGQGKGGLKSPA
Source text: as §1, §2, §3

SMILES | pIC50 (P450RAI-1) | pKd (RARα) | pKd (RARβ) | pKd (RARγ)
CCc1cc(C#Cc2ccc(CC(=O)O)cc2)ccc1C1(OCc2ccccc2)CC1 [Compound 94, {4-[4-(1-Benzyloxycyclopropyl)-3-ethyl-phenylethynyl]-phenyl}-acetic Acid] | < 5.00 | < 5.00 | < 5.00 | < 5.00
COc1c(C(C)(C)C)cc(C#Cc2ccc(CC(=O)O)c(F)c2)cc1C(C)(C)C [Compound 145, [4-(3,5-Di-tert-butyl-4-methoxy-phenylethynyl)-2-fluoro-phenyl]-acetic Acid] | 6.70 | – | – | –
Cc1cc(C#Cc2ccc(CC(=O)O)cc2)ccc1C1(OC(C)C)CC1 [Compound 86, {4-[4-(1-Isopropoxycyclopropyl)-3-methyl-phenylethynyl]-phenyl}-acetic Acid] | 5.85 | < 5.00 | < 5.00 | < 5.00
Cc1cc(C#Cc2ccc(CC(=O)O)cc2)ccc1Cn1ccnc1 [Compound 121, [4-(4-Imidazol-1-yl-methyl-3-methyl-phenylethynyl)-phenyl]-acetic Acid] | – | < 5.00 | – | < 4.00
CC1(C)CCC(n2ccnc2)c2ccc(C#Cc3ccc(C(=O)O)cc3)cc21 (centres unmarked) [Compound 139] | 7.30 | – | – | –
CC1(C)CCC(=O)c2ccc(C(=O)Oc3ccc(CC(=O)O)cc3)cc21 [Compound 20, 8,8-Dimethyl-5-oxo-5,6,7,8-tetrahydro-naphthalene-2-carboxylic Acid-4-(carboxymethyl)phenyl Ester] | < 5.00 | – | – | –
CC1(C)CC2(CC2)Oc2c(C3CC3)cc(C#Cc3ccc(C(=O)O)cc3)cc21 [Compound 52, Benzoic Acid, 4-[(8-cyclopropyl-3,4-dihydro-4,4-dimethylspiro[2H-1-benzopyran-2,1′-cyclopropane]-6-yl)ethynyl]-] | 7.30 | – | – | –
CCN(Cc1ccc(C#Cc2ccc(C(=O)O)cc2)cc1C(C)C)C1CC1 [Compound 134, 4-{4-[(Cyclopropyl-ethyl-amino)-methyl]-3-isopropyly-phenylethynyl}-benzoic Acid] | 5.30 | – | – | –
CC1(C)CC2(CC2)Oc2c(C3CC3)cc(C(=O)Oc3cccc(CC(=O)O)c3)cc21 [Compound 60, Spiro[2H-1-benzopyran-2,1′-cyclopropane]-6-carboxylic Acid, 8-cyclopropyl-3,4-dihydro-4,4-dimethyl-, 3-(carboxymethyl)phenyl Ester] | 5.80 | – | – | –
CC1(C)CC(C)(C)c2cc(C(=O)Oc3ccc(CC(=O)O)cc3)ccc2O1 [Compound 46, 1,2,2,4,4-Tetramethyl-chroman-6-carboxylic Acid 4-(carboxymethyl)phenyl Ester] | 5.66 | – | – | –
CC1(C)CC2(CC2)Oc2c(C3CC3)cc(C#Cc3ccc(C(=O)O)c(F)c3)cc21 [Compound 54, 4-[(8-Cyclopropyl-3,4-dihydro-4,4-dimethylspiro[2H-1-benzopyran-2,1′-cyclopropane]-6-yl)ethynyl]-2-fluoro-benzoic Acid] | 7.66 | – | – | –
CC1(C)CCN(C2CC2)c2ccc(C#Cc3ccc(C(=O)O)cc3)cc21 [Compound 62, 4-(1-Cyclopropyl-4,4-dimethyl-1,2,3,4-tetrahydroquinolin-6-yl-ethynyl)-benzoic Acid] | < 5.00 | – | – | –
CCc1cc(C#Cc2ccc(CC(=O)O)cc2)cc2c1OC(C)(C)CC2(C)C [Compound 56, [4-(8-Ethyl-2,2,4,4-tetramethyl-chroman-6-yl-ethynyl)phenyl]acetic Acid] | 6.89 | – | – | –
O=C(O)c1ccc(C#Cc2ccc(C3(N(Cc4ccccc4)Cc4ccccc4)CC3)cc2)cc1 [Compound 114, 4-[4-(1-Dibenzylamino-cyclopropyl)-phenylethynyl]-benzoic Acid] | < 5.00 | < 5.00 | – | < 5.00
CC1(C)CN(C2CC2)Cc2ccc(C#Cc3ccc(CC(=O)O)cc3)cc21 [Compound 24, [4-(2-Cyclopropyl-4,4-dimethyl-1,2,3,4-tetrahydro-isoquinoline-6-yl-ethynyl)-phenyl]-acetic Acid] | 5.52 | – | – | –
CCc1cc(C#Cc2ccc(CC(=O)O)cc2)ccc1C1(OC(C)C)CC1 [Compound 98, {4-[4-(1-Isopropoxycyclopropyl)-3-ethyl-phenylethynyl]-phenyl}-acetic Acid] | 6.10 | – | – | –
COc1c(C(C)(C)C)cc(C#Cc2ccc(CC(=O)O)cc2)cc1C(C)(C)C [Compound 143, [4-(3,5-Di-tert-butyl-4-methoxy-phenylethynyl)-phenyl]-acetic Acid] | 6.10 | – | – | –
